{"source": "patent US11702403B2", "about": "“EAAT2 activators and methods of using thereof” (OHIO STATE INNOVATION FOUNDATION, priority 2018, dated 2023)", "tested_on": "human EAAT2", "test": "EAAT2 protein levels in PA-EAAT2 cells by Western blot", "type": "cell-based", "settings": "PA-EAAT2 cells, 24 hr; for Fold increase for EAAT2 at indicated concentration (maximum activity): EAAT2 protein relative to DMSO; for concentration that reaches maximum activity: tested 0.0375-10 μM", "experimental": "Compounds were evaluated in PA-EAAT2 cells, a primary astrocyte stably expressing human EAAT2 mRNAs (Kong et al., J Clin Invest. 2014:1255-67). Cells were treated with compound at 0.0375, 0.075, 0.15, 0.3, 0.6, 1.25, 2.5, 5, 10 μM for 24 hr and then harvested for measuring EAAT2 protein levels by Western blot analysis.", "note": "Where a name gives a salt, the structure may show the parent alone.", "data": [{"smiles": "CN(C)CCn1cc(-c2ccccn2)ncc1=O", "note": "[Compound 214, 1-(2-(Dimethylamino)ethyl)-5-(pyridin-2-yl)pyrazin-2(1H)-one hydrochloride]", "values": [{"measurement": "Fold increase for EAAT2 at indicated concentration (maximum activity)", "value": "1.5 ± 0.1", "unit": "fold"}, {"measurement": "concentration that reaches maximum activity", "value": 2.5, "unit": "µM"}]}, {"smiles": "COCCn1nc(-c2ccccn2)ccc1=O", "note": "[Compound 172, 2-(2-Methoxyethyl)-6-(pyridin-2-yl)pyridazin-3(2H)-one]", "values": [{"measurement": "Fold increase for EAAT2 at indicated concentration (maximum activity)", "value": "2.9 ± 0.1", "unit": "fold"}, {"measurement": "concentration that reaches maximum activity", "value": 0.3, "unit": "µM"}]}, {"smiles": "COc1ccc(-c2ccc(=O)n(CCN(C)C)n2)cc1", "note": "[Compound 208, 2-(2-(Dimethylamino)ethyl)-6-(4-methoxyphenyl)pyridazin-3(2H)-one hydrochloride]", "values": [{"measurement": "Fold increase for EAAT2 at indicated concentration (maximum activity)", "value": "1.7 ± 0.2", "unit": "fold"}, {"measurement": "concentration that reaches maximum activity", "value": 0.3, "unit": "µM"}]}, {"smiles": "NCCn1nc(-c2ccccn2)ccc1=O", "note": "[Compound 102, 2-(2-Aminoethyl)-6-(pyridin-2-yl)pyridazin-3(2H)-one hydrochloride]", "values": [{"measurement": "Fold increase for EAAT2 at indicated concentration (maximum activity)", "value": "2.8 ± 0.3", "unit": "fold"}, {"measurement": "concentration that reaches maximum activity", "value": 1.25, "unit": "µM"}]}, {"smiles": "CN(CCn1nc(-c2ccccn2)ccc1=O)c1ccccc1", "note": "[Compound 110, 2-(2-(Methyl(phenyl)amino)ethyl)-6-(pyridin-2-yl)pyridazin-3(2H)-one]", "values": [{"measurement": "Fold increase for EAAT2 at indicated concentration (maximum activity)", "value": "2.3 ± 0.3", "unit": "fold"}, {"measurement": "concentration that reaches maximum activity", "value": 0.6, "unit": "µM"}]}, {"smiles": "COc1cccc(-c2ccc(=O)n(CCN(C)C)n2)c1", "note": "[Compound 207, 2-(2-(Dimethylamino)ethyl)-6-(3-methoxyphenyl)pyridazin-3(2H)-one hydrochloride]", "values": [{"measurement": "Fold increase for EAAT2 at indicated concentration (maximum activity)", "value": "3.5 ± 0.3", "unit": "fold"}, {"measurement": "concentration that reaches maximum activity", "value": 0.15, "unit": "µM"}]}, {"smiles": "O=C1CCCN1CCn1nc(-c2ccccn2)ccc1=O", "note": "[Compound 133, 2-(2-(2-Oxopyrrolidin-1-yl)ethyl)-6-(pyridin-2-yl)pyridazin-3(2H)-one]", "values": [{"measurement": "Fold increase for EAAT2 at indicated concentration (maximum activity)", "value": "1.9 ± 0.3", "unit": "fold"}, {"measurement": "concentration that reaches maximum activity", "value": 2.5, "unit": "µM"}]}, {"smiles": "CN(C)CCCn1nc(-c2ccccn2)ccc1=O", "note": "[Compound 166, 2-(3-(Dimethylamino)propyl)-6-(pyridin-2-yl)pyridazin-3(2H)-one hydrochloride]", "values": [{"measurement": "Fold increase for EAAT2 at indicated concentration (maximum activity)", "value": "2.0 ± 0.2", "unit": "fold"}, {"measurement": "concentration that reaches maximum activity", "value": 0.3, "unit": "µM"}]}, {"smiles": "CN(C)CCn1cc(-c2ccccn2)ccc1=O", "note": "[Compound 213, 1′-(2-(Dimethylamino)ethyl)-[2,3′-bipyridin]-6′(1′H)-one hydrochloride]", "values": [{"measurement": "Fold increase for EAAT2 at indicated concentration (maximum activity)", "value": "2.3 ± 0.1", "unit": "fold"}, {"measurement": "concentration that reaches maximum activity", "value": 0.6, "unit": "µM"}]}, {"smiles": "CNC(=O)CCn1nc(-c2ccccn2)ccc1=O", "note": "[Compound 123, N-Methyl-3-(6-oxo-3-(pyridin-2-yl)pyridazin-1(6H)-yl)propanamide]", "values": [{"measurement": "Fold increase for EAAT2 at indicated concentration (maximum activity)", "value": "2.5 ± 0.2", "unit": "fold"}, {"measurement": "concentration that reaches maximum activity", "value": 0.3, "unit": "µM"}]}, {"smiles": "COc1ccccc1-c1ccc(=O)n(CCN(C)C)n1", "note": "[Compound 206, 2-(2-(Dimethylamino)ethyl)-6-(2-methoxyphenyl)pyridazin-3(2H)-one hydrochloride]", "values": [{"measurement": "Fold increase for EAAT2 at indicated concentration (maximum activity)", "value": "2.4 ± 0.1", "unit": "fold"}, {"measurement": "concentration that reaches maximum activity", "value": 0.15, "unit": "µM"}]}, {"smiles": "Cn1ccnc1Cn1nc(-c2ccccn2)ccc1=O", "note": "[Compound 201]", "values": [{"measurement": "Fold increase for EAAT2 at indicated concentration (maximum activity)", "value": "2.5 ± 0.4", "unit": "fold"}, {"measurement": "concentration that reaches maximum activity", "value": 0.6, "unit": "µM"}]}, {"smiles": "CC(c1ccccn1)n1nc(-c2ccccn2)ccc1=O", "note": "(stereo not shown) [Compound 198, 6-(Pyridin-2-yl)-2-(1-(pyridin-2-yl)ethyl)pyridazin-3(2H)-one]", "values": [{"measurement": "Fold increase for EAAT2 at indicated concentration (maximum activity)", "value": "2.0 ± 0.3", "unit": "fold"}, {"measurement": "concentration that reaches maximum activity", "value": 0.15, "unit": "µM"}]}, {"smiles": "O=c1ccc(-c2ccccn2)nn1CCN1CCOCC1", "note": "[Compound 126, 2-(2-Morpholinoethyl)-6-(pyridin-2-yl)pyridazin-3(2H)-one hydrochloride]", "values": [{"measurement": "Fold increase for EAAT2 at indicated concentration (maximum activity)", "value": "2.2 ± 0.5", "unit": "fold"}, {"measurement": "concentration that reaches maximum activity", "value": 0.3, "unit": "µM"}]}]}
